Key:
Type in all cases: in vivo
[1] = Plasma/blood levels of Iksin in chicks after a single oral dose; details: for peak levels (blood/plasma): observed at 48 h (FIG. 1)
Experimental: FIG. 1 is a graph showing plasma levels of Iksin in chicks after treatment with Iksin at 100 μg/g in DMSO and at 400 μg/g in distilled water/Tween20; and
(§1) Day-old chicks were orally administered Iksin in DMSO at 100 μg/g, 125 μg/g, 150 μg/g and 200 μg/g body weight and in Distilled Water (DW)/5% Tween-20 at 100 μg/g, 200 μg/g, 400 μg/g and 500 μg/g body weight.

chicks = experiment: Effect on chick growth: weight gain after a single treatment
Experimental: FIG. 2 is a graph showing the average percentage weight increase in chicks after single dosing with Iksin at 12 μg/g in DMSO, 100 μg/g in DMSO, 200 μg/g in distilled water/Tween20 and 400 μg/g in distilled water/tween20 compared to untreated chicks.
as §1
Treatment with Iksin 12 μg/g DMSO, 200 and 400 μg/g DW/T20 gave a mean weight gain of 17%.

day-old broiler chicks = experiment: Determination of dose range: maximum tolerated oral dose in day-old broiler chicks
Experimental: as §1
The maximum tolerated oral dose of Iksin for day-old broiler chicks was 200 μg/g Iksin/DMSO and ≧500 μg/g in DW/T20.

## C/C(=C\c1ccc2c(c1)OCO2)[N+](=O)[O-] [Iksin, 3,4-methylenedioxy-β-methyl-β-nitrostyrene]
[1]; single oral dose 12 μg/g DMSO
  Iksin blood levels: below the limits of detection
[1]; single oral dose 100 μg/g DMSO
  peak levels (blood/plasma): 850 µg/g
[1]; single oral dose 200 μg/g DW
  Iksin blood levels: below the limits of detection
[1]; single oral dose 400 μg/g DW
  peak levels (blood/plasma): 850 µg/g
[1]; single oral dosing
  absorption from a single oral dosing: Very little Iksin was absorbed
chicks; all doses and formulations, 4 days after a single treatment (FIG. 2)
  weight gain in chicks: increased weight gain
chicks; chicks, Iksin 12 μg/g DMSO, 200 and 400 μg/g DW/T20 (mean of these groups), 4 days after a single treatment
  mean weight gain: 17%
chicks; chicks, Iksin 100 μg/g DMSO, 4 days after a single treatment
  increase in weight gain over the group of control chicks: 32%
day-old broiler chicks; Iksin in DMSO
  maximum tolerated oral dose: 200 µg/g
day-old broiler chicks; Iksin in DW/T20 (distilled water/5% Tween-20)
  maximum tolerated oral dose: ≥ 500 µg/g

— US20060100258A1, “Growth promotion method” (priority 2003, published 2006)
